Measurements reported in patent US20070134282A1, “Methods for inhibiting fungal pathogen infestation and propogation” (Stephen F. Austin State University, priority 2005, published 2007).
≈ marks a conversion by molar mass, not a printed value. Like-named read-outs stand apart in the source and are kept apart here.

Tests used:
[1] = system: F. verticillioides; settings: cited from earlier work
[2] = system: Drechslera sp.; test: mycelial growth inhibition on potato dextrose agar; format: cell-based; settings: for EC50: estimated; for inhibition at 50 µg/mL: 480 h, 50 μg/mL, day 20, read-out: colonies inhibited; for inhibiting fungus: at all experimental concentrations
Description: (§1) Alternaria alternata, Epicoccum nigrum, Pestalotia guepinii, Drechslera sp., and Fusarium avenaceum were isolated from infected leaves and roots of C. acuminata. The strains were cultured and maintained on potato dextrose agar (PDA) medium.
(§2) CPT, trifolin, and hyperoside (isolated from Camptotheca as above) were tested for their ability to inhibit these fungi, as compard with two classical fungicides, Bravo (active ingredient: chlorothalonil) and Maneb (active ingredient: manganous ethylenebis [dithiocarbamate]), as references. The concentrations of the conventional fungicides were those recommended by the manufacturers (Bravo: 10,000 μg/mL; Maneb: 3,000 μg/mL).
(§3) In addition to a negative control (0) and two fungicides as positive controls for each of the five isolated pathogens, seven levels of CPT were tested with each of the fungi and three levels of trifolin and hyperoside were tested with P. guepinii, Drechslera sp. and F. avenaceum, respectively (see FIG. 8).
(§4) Trifolin and hyperoside treatments were applied at concentrations of 50, 100, and 150 μg/mL, respectively. For all cultures, final concentrations were made in molten (50° C.) potato dextrose agar (Difco), and 10 mL aliquots were poured into Petri dishes (85 mm in diameter). Within 24 hours after pouring, each of the plates was inoculated with one of the five fungi. One 5×5 mm mycelial plug was cut from the actively growing front of a 2 week old colony, then placed with the inoculum side down in the center of each treatment plate. The cultures were incubated at 24° C. For all experiments, five replicate plates were inoculated for each treatment.
(§5) Mycelial growth on each plate was observed daily and recorded on a transparent film for the first two weeks, then recorded on the 16th, 20th, 23rd, and 28th days. Colony radii were measured along four vertical radial directions. The mean of the four measurements was calculated as the growth rate on each plate. Mean and standard error were calculated from the five replicates of each treatment. For each of the fungi, values of EC50 (effective concentration that caused 50% inhibition of mycelial growth) and MIC (the minimum inhibitory concentration) of each compound were estimated.

[3] = system: Fusarium avenaceum; test: mycelial growth inhibition on potato dextrose agar; format: cell-based; settings: for inhibition at 50 µg/mL / inhibition at 100 µg/mL: 672 h, day 28, read-out: inhibited fungal growth; for inhibition at 50 µg/mL: 50 μg/mL; for inhibition at 100 µg/mL: 100 μg/mL; for EC50: F. avenaceum, estimated, read-out: EC50 (effective concentration that caused 50% inhibition of mycelial growth); for inhibiting fungus: at all experimental concentrations; for inhibition at 10 µg/mL: read-out: inhibition of mycelial growth, CPT 10 μg/mL
Description: as §1, §2, §3, §4, §5

[4] = system: Pestalotia guepinii; test: mycelial growth inhibition on potato dextrose agar; format: cell-based; settings: for inhibition at 50 µg/mL: 264 h, 50 μg/mL, day 11, read-out: colonies inhibited; for EC50: read-out: EC50 (effective concentration that caused 50% inhibition of mycelial growth); for MIC: read-out: MIC (minimal inhibitory concentration)
[5] = system: Fusarium avenaceum; test: mycelial growth inhibition on potato dextrose agar; format: cell-based; settings: in vitro; at the same concentrations as the dithiocarbamate (100 ppm)
[6] = system: Alternaria alternata; test: mycelial growth inhibition on potato dextrose agar; format: cell-based
Description: as §1, §2, §3, §4, §5

[7] = system: Epicoccum nigrum; test: mycelial growth inhibition on potato dextrose agar; format: cell-based
Description: as §1, §2, §3, §4, §5

[8] = system: Pestalotia guepinii; test: mycelial growth inhibition on potato dextrose agar; format: cell-based
Description: as §1, §2, §3, §4, §5

[9] = system: Botrytis cinerea; settings: in vitro tests and TLC bioautography; Sridhar et al. (2003); cited from earlier work
[10] = system: Alternaria mali; settings: mycelial growth; cited from earlier work
[11] = system: F. oxysporum f.sp. lycopersici; settings: mycelial growth; cited from earlier work
[12] = system: F. oxysporum f. sp. lini; settings: 100 ppm (100 μg/mL); cited from earlier work
[13] = Drechslera sp., read-out: EC50 (effective concentration that caused 50% inhibition of mycelial growth)
[14] = at relatively higher concentrations

COc1cc(C=CC=O)ccc1O [4-hydroxy-3-methoxycinnamaldehyde]
MIC [1]: 400 µg/mL (≈ 2240 µM)

O=c1c(O[C@@H]2O[C@H](CO)[C@H](O)[C@H](O)[C@H]2O)c(-c2ccc(O)cc2)oc2cc(O)cc(O)c12 [trifolin, kaempferol-3-O-β-D-galactopyranoside]
growth inhibition ([2]; 100 μg/mL, 28-day experiment): totally controlled the fungus | growth inhibition ([2]; 150 μg/mL): completely inhibited growth | EC50 [2, 13]: < 50 µg/mL | inhibition at 50 µg/mL ([2]; Drechslera): 76.1% | inhibiting fungus [2]: highly effective | growth inhibition ([3]; 150 μg/mL): totally controlled the fungus during the entire experiment | inhibition at 50 µg/mL ([3]; Fusarium avenaceum): 35.8% | inhibition at 100 µg/mL ([3]; Fusarium avenaceum): 74.8% | EC50 ([3]; Fusarium avenaceum): 50 to 100 µg/mL (≈ 112 to 223 µM) | inhibiting fungus [3]: highly effective | inhibition at 50 µg/mL [4]: 53.4% | EC50 ([4]; P. guepinii, estimated): ~50 µg/mL (≈ 112 µM) | MIC ([4]; P. guepinii): < 125 µg/mL | inhibited growth [5]: 70%

CC[C@@]1(O)C(=O)OCc2c1cc1n(c2=O)Cc2cc3ccccc3nc2-1 [CPT, 4(S)-4-ethyl-4-hydroxy-1H-pyrano-(3′,4′:6,7) indolizino (1,2,-b) quinoline-3,14 (4H,12H)-dione]
EC50 ([6]; Alternaria alternata, read-out: EC50 (effective concentration that caused 50% inhibition of mycelial growth)): < 25 µg/mL | MIC ([6]; Alternaria alternata, A. alternata, read-out: MIC (minimal inhibitory concentration)): 75 µg/mL (≈ 215 µM) | inhibition at 10 µg/mL ([6]; Alternaria alternata, CPT 10 μg/mL, read-out: colonies inhibited): 41 to 66% | days for mycelium to completely cover the agar surface ([6]; CPT 10 μg/mL, control 13 days): 23 days | day colonies started to grow ([6]; CPT 25 μg/mL): second day | colony expansion reduced ([6]; CPT 25 μg/mL, 28 days vs. 13 days for control): 215% | days to cover the agar surface ([6]; CPT 25 μg/mL, control 13 days): 28 days | colonies smaller than controls ([6]; CPT 25 μg/mL, day 13): 52.8% | control of fungal growth ([6]; CPT 75 μg/mL and above): totally controlled | suppressing growth [6, 14]: effective | growth inhibition ([2]; CPT 100 μg/mL and higher): completely inhibited fungal growth | inhibition compared with Bravo ([2]; CPT at all experimental levels (10-150 μg/mL) vs Bravo 10,000 μg/mL): greater inhibition rates than Bravo | EC50 ([2]; Drechslera, read-out: EC50 (effective concentration that caused 50% inhibition of mycelial growth), Drechslera sp.): ~10 µg/mL (≈ 28.7 µM) | MIC ([2]; Drechslera, read-out: MIC (minimal inhibitory concentration)): 100 µg/mL (≈ 287 µM) | inhibiting fungus [2]: highly effective | delayed mycelial growth ([7]; CPT 10 μg/mL and 25 μg/mL, 28 days vs. 10 days for control): 280% | days to cover agar surface ([7]; CPT 10 μg/mL and 25 μg/mL, control 10 days): 28 days | colonies smaller than controls ([7]; CPT 10 μg/mL, day 10): 65% | colony radii ([7]; CPT 25 μg/mL, day 15): 20 mm | day growth began ([7]; CPT 50 μg/mL): 8th day | colony radii ([7]; CPT 50 μg/mL, day 20): 8 mm | growth inhibition ([7]; CPT 75 μg/mL and higher): totally inhibited growth | EC50 ([7]; Epicoccum nigrum, read-out: EC50 (effective concentration that caused 50% inhibition of mycelial growth), E. nigrum, estimated): ~10 µg/mL (≈ 28.7 µM) | inhibition at 50 µg/mL ([7]; Epicoccum nigrum, CPT 50 μg/mL, read-out: inhibited growth): > 90% | MIC ([7]; Epicoccum nigrum, E. nigrum, read-out: MIC (minimal inhibitory concentration)): 75 µg/mL (≈ 215 µM) | suppressing growth [7, 14]: effective | growth inhibition ([3]; CPT 125 and 150 μg/mL): completely inhibited growth | MIC ([3]; Fusarium avenaceum, read-out: MIC (minimal inhibitory concentration; complete inhibition)): 125 µg/mL (≈ 359 µM) | inhibition at 30 µg/mL ([3]; Fusarium avenaceum, read-out: inhibited the rate of mycelial growth, CPT 30 μg/mL): > 60% | inhibition at 10 µg/mL ([3]; Fusarium avenaceum, first several days of the experiment): 70 to 80% | inhibition at 10 µg/mL ([3]; Fusarium avenaceum, later stages): ~40% | inhibiting fungus [3]: highly effective | reduced mycelial growth ([8]; CPT 10 μg/mL, 11th day): 43.5% | day colonies reached the petri dish margins ([8]; CPT 10 μg/mL, control 11th day): 20 days | growth inhibition ([8]; CPT 125 μg/mL and above): totally inhibited growth | EC50 [4]: ~10 µg/mL (≈ 28.7 µM) | MIC [4]: 125 µg/mL (≈ 359 µM) | inhibited growth [5]: 70%

CC(C)=CCC/C(C)=C/CO [geraniol]
minimum concentration (MIC) [9]: 160 µg/mL

COc1cc([C@H]2OC[C@H]3[C@@H]2CO[C@H]3c2ccc(O)c(OC)c2)ccc1O (racemic) [(±) pinoresinol]
MIC [1]: 1,000 μg/mL

C/C=C\c1cc(OC)c(OC)cc1OC [β-Asarone]
MIC [10]: > 100 µg/mL | MIC [11]: > 100 µg/mL

COc1cc(C=O)ccc1O [Vanillin]
MIC [1]: 600 µg/mL (≈ 3940 µM)

O=c1c(O[C@@H]2O[C@H](CO)[C@H](O)[C@H](O)[C@H]2O)c(-c2ccc(O)c(O)c2)oc2cc(O)cc(O)c12 [hyperoside, quercetin-3-O-β-D-galactopyranoside]
growth inhibition ([2]; 100 μg/mL, 28-day experiment): little growth by day 28 | growth inhibition ([2]; 150 μg/mL): completely inhibited growth | EC50 [2, 13]: < 50 µg/mL | inhibition at 50 µg/mL ([2]; Drechslera): 74.3% | inhibiting fungus [2]: highly effective | growth inhibition ([3]; 150 μg/mL): completely inhibited fungal growth during the first four weeks | inhibition at 50 µg/mL ([3]; Fusarium avenaceum): 31.6% | inhibition at 100 µg/mL ([3]; Fusarium avenaceum): 72.6% | EC50 ([3]; Fusarium avenaceum): 50 to 100 µg/mL (≈ 108 to 215 µM) | inhibiting fungus [3]: highly effective | inhibition at 50 µg/mL [4]: 53.8% | EC50 ([4]; P. guepinii, estimated): ~50 µg/mL (≈ 108 µM) | MIC ([4]; P. guepinii): < 125 µg/mL | inhibited growth [5]: 70%

CCN(CC)C(=S)[S-].[Na+] [N,N-diethyldithiocarbamic acid sodium salt]
inhibit growth [12]: 7-30%
